From patent US12208112B2, “Composition for treating blood cancer using 4′-thio-5-Aza-2′-deoxycytidine and uses thereof” (Southern Research Institute, priority 2020, dated 2025)

Key:
[1] = biological target: cytidine deaminase (Homo sapiens, UniProt P32320); settings: compared to conventional compounds with a 5-azacytidine backbone; cited from earlier work
[2] = system: MV4-11 AML cells; test: Blood analysis (CBC sampling) in the systemic AML model; settings: blood samples collected in the AML model experiment
[3] = biological target: DNMT1 (Homo sapiens, UniProt P26358); settings: background statement; cited from earlier work
[4] = Animal PK, NCA parameters, mouse; settings: in vivo
[5] = system: MV4-11 AML cells; test: Xenograft AML model with subcutaneously transplanted MV4-11 AML cells, alone and in combination with Venetoclax; format: in vivo, mouse; settings: Aza-T-dCyd 2.0 mpk PO alone, Aza-T-dCyd 0.5 mpk with Venetoclax 50 mpk PO, Azacitidine 5.0 mpk IP alone
Text: 5.0 mpk of Azacitidine alone; or 2.5 mpk of Azacitidine in combination of 50 mpk of Venetoclax were intraperitoneal (IP) administered as a control.

[6] = system: blood cancer mouse models; test: Blood cancer mouse models (summary statement); format: in vivo; settings: 1.4 to 2.6 mpk PO for 5 days, 2-day break, 9-day break
[7] = system: MDS orthotopic animal models; settings: reported in 2018; cited from earlier work
[8] = system: Molm13 AML cells; test: Xenograft model with subcutaneously transplanted Molm13 AML cells; format: in vivo, mouse; settings: 1.5 or 2.5 mpk PO, one cycle
[9] = Absorption parameters over three species; format: in vivo, mice, rats, or dogs
Text: Details are described in the next section. […] See also FIG. 3 and FIG. 7.
The human F calculated by the equation reported in literature was about 0.65 (from mouse), 0.59 (from rat), or 0.66 (from dog). See Musther et al. (2014) European Journal of Pharmaceutical Sciences 57: 280-291.

[10] = Animal PK, NCA parameters, dog; settings: in vivo
[11] = Mouse PK (AUC); format: in vivo; settings: for AUC: in vivo, mouse
Text: (§1) Without wishing to be bound by theory, this is excellent efficacy at a level that is impossible to reach by the same family of cytidine-based drugs such as decitabine or azacytidine, which was conventionally used, and according to conventional reports on Aza-T-dCyd, the level corresponds to a dose of a level expected to have toxicity.

[12] = system: MV4-11 AML cells; test: Systemic AML model, MV4-11 AML cells transplanted into the bone marrow (survival, clinical observations)
[13] = Human PK parameter prediction by interspecies (allometric) scaling; settings: for F_human (equation result): in % (unit assumed)
Text: PK parameters were scaled allometrically and used to extrapolate the PK in a 70 kg human. Details are described in the next section.
Simple allometric scaling, was used to predict CL, Vc, Vp, and Q. Y is PK parameter, BW is body weight, a is the allometric coefficient, and b is the allometric exponent. Final PK parameters, CL, Vc, Vp, and Q, were extrapolated based on the best-fit-lines (FIG. 8).
See Musther et al. (2014) European Journal of Pharmaceutical Sciences 57: 280-291.
For absorption rate constant (Ka) and bioavailability (F), animal parameters were used.

[14] = Simulation of human PK using decitabine PK parameters; settings: from animal parameters, used in human simulation
Text: as §1

[15] = Animal PK, NCA parameters, rat; settings: in vivo
[16] = system: normal mouse; test: Bone marrow toxicity after one-cycle PO administration to a normal mouse; format: in vivo
Text: In the case of elderly patients who cannot receive bone marrow transplants, that is, the main targets of decitabine and azacytidine, toxicity in the bone marrow becomes the limit dose that determines a dose for administration, and, thus, the maximum dose that enables safe administration was to be determined.

[17] = cited from earlier work
[18] = in vivo; settings: rat, iv, 1 mg/kg
[19] = in vivo; settings: dog, iv, 0.33 mg/kg
[20] = in vivo; settings: mouse, iv, 1 mg/kg
[21] = human decitabine parameter used in simulation

Sequence of cytidine deaminase (P32320 whole entry, species assumed): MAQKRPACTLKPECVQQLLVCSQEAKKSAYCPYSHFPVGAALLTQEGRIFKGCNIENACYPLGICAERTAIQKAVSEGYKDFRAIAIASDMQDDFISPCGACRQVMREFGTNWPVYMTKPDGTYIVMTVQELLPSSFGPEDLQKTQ
Sequence of DNMT1 (P26358 whole entry, species assumed): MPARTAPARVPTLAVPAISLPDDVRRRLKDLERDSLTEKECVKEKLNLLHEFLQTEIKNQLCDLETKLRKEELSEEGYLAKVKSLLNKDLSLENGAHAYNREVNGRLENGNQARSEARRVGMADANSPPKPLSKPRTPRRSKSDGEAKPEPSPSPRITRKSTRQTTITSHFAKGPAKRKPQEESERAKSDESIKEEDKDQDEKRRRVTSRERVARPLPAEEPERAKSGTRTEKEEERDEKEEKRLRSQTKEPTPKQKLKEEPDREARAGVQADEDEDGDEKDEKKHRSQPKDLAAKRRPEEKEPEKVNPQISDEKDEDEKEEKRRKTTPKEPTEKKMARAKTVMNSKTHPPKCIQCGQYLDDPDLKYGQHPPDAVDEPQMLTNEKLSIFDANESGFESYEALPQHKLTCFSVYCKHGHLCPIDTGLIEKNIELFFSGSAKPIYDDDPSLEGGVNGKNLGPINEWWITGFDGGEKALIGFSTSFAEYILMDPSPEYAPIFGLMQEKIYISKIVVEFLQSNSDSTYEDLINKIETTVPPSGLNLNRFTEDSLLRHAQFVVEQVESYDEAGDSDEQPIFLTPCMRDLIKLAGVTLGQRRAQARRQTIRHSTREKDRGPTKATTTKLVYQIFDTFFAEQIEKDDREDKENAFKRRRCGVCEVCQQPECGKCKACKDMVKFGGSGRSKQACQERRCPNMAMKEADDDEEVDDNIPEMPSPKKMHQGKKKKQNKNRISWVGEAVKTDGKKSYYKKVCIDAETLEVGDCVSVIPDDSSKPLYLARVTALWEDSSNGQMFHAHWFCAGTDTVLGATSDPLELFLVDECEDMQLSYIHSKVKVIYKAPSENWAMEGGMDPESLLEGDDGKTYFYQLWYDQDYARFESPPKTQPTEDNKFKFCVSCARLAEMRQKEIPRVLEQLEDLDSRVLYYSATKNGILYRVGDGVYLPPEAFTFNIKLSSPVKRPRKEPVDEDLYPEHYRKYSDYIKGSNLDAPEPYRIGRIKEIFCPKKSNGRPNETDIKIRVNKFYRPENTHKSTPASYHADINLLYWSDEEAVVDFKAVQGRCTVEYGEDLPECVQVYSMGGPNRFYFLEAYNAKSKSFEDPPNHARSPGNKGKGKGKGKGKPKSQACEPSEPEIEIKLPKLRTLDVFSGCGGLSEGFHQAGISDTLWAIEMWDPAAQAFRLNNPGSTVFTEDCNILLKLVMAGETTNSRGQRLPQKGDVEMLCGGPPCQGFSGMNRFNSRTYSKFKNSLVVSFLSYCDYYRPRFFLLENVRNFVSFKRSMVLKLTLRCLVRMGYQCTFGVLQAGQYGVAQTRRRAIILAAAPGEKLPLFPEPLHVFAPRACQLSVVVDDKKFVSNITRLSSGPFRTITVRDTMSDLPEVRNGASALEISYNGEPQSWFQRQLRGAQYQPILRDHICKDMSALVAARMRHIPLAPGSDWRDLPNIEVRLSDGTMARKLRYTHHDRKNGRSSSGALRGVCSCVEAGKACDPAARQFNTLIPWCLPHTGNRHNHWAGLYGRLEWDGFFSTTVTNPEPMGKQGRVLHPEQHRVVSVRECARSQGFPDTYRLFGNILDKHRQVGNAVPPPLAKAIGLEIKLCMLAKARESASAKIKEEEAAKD

## Nc1ncn(C2CC(O)C(CO)S2)c(=O)n1 (stereo not drawn) [Aza-T-dCyd, 4′-Thio-5-aza-2′-deoxycytidine]
[1]
  rate of degradation by cytidine deaminase: reduced rate of degradation by cytidine deaminase
[2]
  blood analysis: major parameters (WBC, neutrophil, platelet, RBC levels): no change in major parameters
[3]
  DNMT removal and inhibitory activities in cells: high DNMT removal and inhibitory activities in cells
[4]
  bioavailability: 50.6%
[4]; iv, 1 mg/kg
  AUC(0-inf): 406 ng·h/mL
  C0: 616 ng/mL
  Vd: 1.9 L/kg
  clearance: 42.3 mL/min/kg
  half-life: 0.6 h
[5]
  anti-cancer effects (tumor volume): very excellent anti-cancer effects
[6]
  anticancer effect: significant anticancer effect
[7]
  toxicity: so severe that therapeutic efficacy was not observed
[8]
  anticancer efficacy: excellent anticancer efficacy close to tumor regression
[9]; average from three species
  average absorption rate constant (Ka): approximately 2.63 h^−1
[9]; mouse, rat, dog, in vivo, average from three species, read-out: average bioavailability (F)
  bioavailability: ~54%
[9]; mouse, rat, dog, in vivo, range of the three species
  Tmax: 0.25 to 2 h
[10]
  bioavailability: 68.7%
[10]; iv, 0.33 mg/kg
  AUC(0-inf): 1130 ng·h/mL
  C0: 586 ng/mL
  Vd: 0.81 L/kg
  clearance: 5 mL/min/kg
  half-life: 2.25 h
[11]; 2.0 mpk PO
  maximum range of change of total area under curve (AUC): approximately 25%
[11]; oral, 0.07 mg/kg, 0.07 mpk
  AUC: 11.3 ng·h/mL
[11]; oral, 0.13 mg/kg, 0.13 mpk
  AUC: 19.3 ng·h/mL
[11]; oral, 0.27 mg/kg, 0.27 mpk
  AUC: 38.1 ng·h/mL
[11]; oral, 0.4 mg/kg, 0.4 mpk
  AUC: 55.4 ng·h/mL
[11]; oral, 0.8 mg/kg, 0.8 mpk
  AUC: 109 ng·h/mL
[11]; oral, 1 mg/kg, 1.0 mpk
  AUC: 136 ng·h/mL
[11]; oral, 1.4 mg/kg, 1.4 mpk
  AUC: 183 ng·h/mL
[11]; oral, 1.5 mg/kg, 1.5 mpk
  AUC: 203 ng·h/mL
[11]; oral, 2.5 mg/kg, 2.5 mpk
  AUC: 336 ng·h/mL
[11]; oral, 2.6 mg/kg, 2.6 mpk
  AUC: 355 ng·h/mL
[11]; oral, 3 mg/kg, 3.0 mpk
  AUC: 403 ng·h/mL
[11]; oral, 10 mg/kg, 10 mpk
  AUC: 1340 ng·h/mL
[11]; po, 2 mg/kg, 2.0 mpk
  AUC: 270 ng·h/mL
[12]; 1.4 to 2.6 mpk based on a mouse
  therapeutic efficacy against MDS/AML: excellent therapeutic efficacy against MDS/AML
[12]; 1.5 mpk PO, three cycles
  efficacy: an efficacy which did not reach that of the PO administration of 2.0 to 2.5 mpk of Aza-T-dCyd
[12]; 2.0 mpk PO, one cycle
  clinical observations including body weight: stay in the normal range
[12]; 2.0 mpk PO, three cycles
  clinical observations including mouse body weight: remained in the normal range
  survival improvement: very excellent survival improvement
[12]; 2.5 mpk PO, three cycles
  death of subjects: led to the death of some subjects
[12]; one cycle, Aza-T-dCyd 2.0 mpk PO, decitabine and azacytidine at optimal doses as controls
  survival improvement: very excellent survival improvement
[13]; From Dog
  F_human (equation result): 66.28
[13]; From Mouse
  F_human (equation result): 65.16
[13]; From Rat
  F_human (equation result): 59.26
[13]; estimated assuming Tmax in a human is 1 hour, value set
  human Ka: 2.8 h⁻¹
[13]; from dog
  human F calculated by literature equation: ~0.66
[13]; from mouse
  human F calculated by literature equation: about 0.65
[13]; from rat
  human F calculated by literature equation: ~0.59
[13]; predicted for a 70 kg human
  CL Clearance, Predicted Value: 8.95 L/h
  F Absolute bioavailability, Predicted Value: 0.6
  Ka The first-order absorption rate constant, Predicted Value: 2.8 h⁻¹
  Q Intercompartmental clearance, Predicted Value: 250.52 L/h
  Vc Central volume = V2, Predicted Value: 29.50 L
  Vp Peripheral volume = V3, Predicted Value: 12.92 L
[13]; set in consideration of the results
  human F (set value): 0.6
[14]
  F Absolute bioavailability: 0.6
  Ka The first-order absorption rate constant: 2.8 h⁻¹
[15]
  bioavailability: 43.2%
[15]; iv, 1 mg/kg
  AUC(0-inf): 1900 ng·h/mL
  C0: 562 ng/mL
  Vd: 3.53 L/kg
  clearance: 8.83 mL/min/kg
  half-life: 5.01 h
[16]; 2.5 mpk PO, one cycle
  change in the bone marrow: a significant change in the bone marrow started to be observed
[16]; up to 2.0 mpk PO, one cycle (5 days, 2-day break, 5 days, 9-day break)
  viability and composition of each cell in the bone marrow: no significant change in the viability and composition of each cell in the bone marrow

## Nc1ncn([C@@H]2O[C@H](CO)[C@@H](O)[C@H]2O)c(=O)n1 [azacytidine, reference compound]
[2]
  blood analysis: major parameters (WBC, neutrophil, platelet, RBC levels): severe neutropenia

## Nc1ncn([C@H]2C[C@H](O)[C@@H](CO)O2)c(=O)n1 [decitabine, reference compound]
[17]; [21]
  Q Intercompartmental clearance: 23 L/h
  Vc Central volume = V2: 32 L
  Vp Peripheral volume = V3: 40 L
[17]; human, reported in literature, used in human simulation
  CL Clearance: 152 L/h
[4]; iv, 1 mg/kg
  AUC(0-inf): 268 ng·h/mL
  C0: 579 ng/mL
  Vd: 1.7 L/kg
  clearance: 62.5 mL/min/kg
[18]
  half-life: 3.71 h
[10]; iv, 0.33 mg/kg
  AUC(0-inf): 1080 ng·h/mL
  C0: 746 ng/mL
  Vd: 0.476 L/kg
  clearance: 5.17 mL/min/kg
[19]
  half-life: 1.19 h
[15]; iv, 1 mg/kg
  AUC(0-inf): 2370 ng·h/mL
  C0: 504 ng/mL
  Vd: 2.16 L/kg
  clearance: 7 mL/min/kg
[20]
  half-life: 0.4 h
